Test results taken from US5741811A, “Polythiophene anti-tumor agents” (Purdue Research Foundation, priority 1996, dated 1998).
Read-outs that look alike come from different tables or passages of the source.

Legend:
Experiment in all cases: NCI human tumor cell line panel growth inhibition
Format in all cases: cell-based
MALME-3M melanoma cells = details: read-out: Log10 GI50 (converted)
[1] = test system: OVCAR-5 ovarian cancer cells; details: Homo sapiens, read-out: Log10 GI50 (converted)
[2] = test system: OVCAR-3 ovarian cancer cells; details: Homo sapiens; OVCAR-3, ovarian cancer; read-out: Log10 GI50 (converted)
UACC-257 melanoma cells = details: Homo sapiens, read-out: Log10 GI50 (converted)
[3] = test system: HCT-15 colon cancer cells; details: Homo sapiens, read-out: Log10 GI50 (converted)
[4] = test system: NCI-H23 lung cancer cells; details: read-out: Log10 GI50 (converted)
TK-10 renal cancer cells = details: Homo sapiens, read-out: Log10 GI50 (converted)
[5] = test system: CAKI-1 renal cancer cells; details: Homo sapiens; CAKI-1, renal cancer; read-out: Log10 GI50 (converted)
U251 CNS cancer cells = details: Homo sapiens, U-251, read-out: Log10 GI50 (converted)
[6] = test system: SW-620 colon cancer cells; details: Homo sapiens, read-out: Log10 GI50 (converted)
Method: (§1) The first screen measures the cytotoxicity against a panel of sixty different human tumor cell lines. This assay provides data regarding the general cytotoxicity of an individual compound.
(§2) The length of a bar is indicative of differential cytotoxicity against a specific type of tumor cells or tumor panels.
(§3) The antitumor cytotoxicity of the thiophene compounds tested in the first two in vitro assays was measured by a microculture assay using either 3-(4,5-dimethylthiazol-2-yl)-2,5-diphenyltetrazolium bromide (MTT) or sulforhodamine B (SRB). [M. R. Boyd in "Principles and Practices of Oncology," V. T. DeVita, Jr., S. Hellman and S. A. Rosenberg (Eds.), Vol. 3, PPO Updates, Number 10, 1989.] This assay has an advantage over in vivo assay in that results are obtained within a week as opposed to several months. The assay was carried out in 96-well microtiter plates. The MTT assay is based on the production of a dark blue formazan product by dehydrogenase in the mitochondria of live tumor cells after exposure to drug for 6 days [M. C. Alley, D. A. Scudiero, A. Monks, M. L. Hursey, M. J. Czerwinski, D. L. Fine, B. J. Abbott, J. G. Mayo, R. H. Shoemaker and M. R. Boyd, Cancer Res., 48, 589, 1988.] Thus, only live cells are stained and can be measured at 570 nm. The SRB assay is based on the binding of the anionic group to the basic amino acid residues of cellular proteins after exposure of tumor cells to drug for 2 days [P. Skehan, R. Storeng, D. Scudiero, A. Monks, J. McMahon, D. Vistica, J. T. Warren, H. Bohesch, S. Kenney and M. R. Boyd, J. Nat. Cancer Inst., 82, 1107, 1990.] Thus, the total protein (viability) can be measured at 564 nm.

[7] = test system: OVCAR-8 ovarian cancer cells; details: Homo sapiens, read-out: Log10 GI50 (converted)
Method: as §1, §2, §3

A-498 renal cancer cells = details: Homo sapiens, A498, read-out: Log10 GI50 (converted)
SNB-75 CNS cancer cells = details: Homo sapiens, read-out: Log10 GI50 (converted)
[8] = test system: COLO-205 colon cancer cells; details: Homo sapiens
M-14 melanoma cells = details: M14, read-out: Log10 GI50 (converted)
[9] = test system: IGROV-1 ovarian cancer cells; details: Homo sapiens, read-out: Log10 GI50 (converted)
SK-MEL-28 melanoma cells = details: read-out: Log10 GI50 (converted)
From the text: (§4) The cytotoxic activity of the present polythiophene compounds have been measured utilizing three different assays or screens. The first screen measures the cytotoxicity against a panel of sixty different human tumor cell lines. This assay provides data regarding the general cytotoxicity of an individual compound. In particular this type of assay is useful in identifying compounds which have enhanced cytotoxic activity against slow growing tumors as compared to faster growing tumor cells such as leukemia tumor cell lines. The identification of such compounds is critical since previously identified antitumor agents have low cytotoxic activity against slower growing tumors. […] The specificity of a cytotoxic compound for tumor cell lines relative to normal cells is an important characteristic of an effective antitumor agent.
as §2, §3

HOP-92 lung cancer cells = details: Homo sapiens, read-out: Log10 GI50 (converted)
From the text: as §4, §2, §3

[10] = test system: MDA-MB-231/ATCC breast cancer cells; details: read-out: Log10 GI50 (converted)
From the text: as §4, §2, §3

[11] = test system: DU-145 prostate cancer cells; details: read-out: Log10 GI50 (converted)
From the text: as §4, §2, §3

[12] = test system: MDA-N breast cancer cells; details: read-out: Log10 GI50 (converted)
From the text: as §4, §2, §3

KM12 colon cancer cells = details: Homo sapiens, read-out: Log10 GI50 (converted)
From the text: as §4, §2, §3

SK-MEL-5 melanoma cells = details: read-out: Log10 GI50 (converted)
From the text: as §4, §2, §3

[13] = test system: OVCAR-4 ovarian cancer cells; details: Homo sapiens, read-out: Log10 GI50 (converted)
From the text: as §4, §2, §3

MCF7 breast cancer cells = details: read-out: Log10 GI50 (converted)
From the text: as §4, §2, §3

[14] = test system: PC-3 prostate cancer cells; details: read-out: Log10 GI50 (converted)
From the text: as §4, §2, §3

[15] = test system: HCC-2998 colon cancer cells; details: Homo sapiens, read-out: Log10 GI50 (converted)
786-0 renal cancer cells = details: read-out: Log10 GI50 (converted)
[16] = test system: T-47D breast cancer cells; details: T47D, read-out: Log10 GI50 (converted)
Method: The assay was carried out in 96-well microtiter plates. The MTT assay is based on the production of a dark blue formazan product by dehydrogenase in the mitochondria of live tumor cells after exposure to drug for 6 days [M. C. […] The SRB assay is based on the binding of the anionic group to the basic amino acid residues of cellular proteins after exposure of tumor cells to drug for 2 days [P. Skehan, R. Storeng, D. Scudiero, A. Monks, J. McMahon, D. Vistica, J. T. Warren, H. Bohesch, S. Kenney and M. R. Boyd, J. Nat.

[17] = test system: HCT-116 colon cancer cells; details: Homo sapiens, read-out: Log10 GI50 (converted)
[18] = test system: NCI-H322M lung cancer cells; details: Homo sapiens, read-out: Log10 GI50 (converted)
SF-295 CNS cancer cells = details: read-out: Log10 GI50 (converted)
SNB-19 CNS cancer cells = details: Homo sapiens, read-out: Log10 GI50 (converted)
HOP-62 lung cancer cells = details: Homo sapiens, read-out: Log10 GI50 (converted)
SF-268 CNS cancer cells = details: read-out: Log10 GI50 (converted)
[19] = test system: NCI-H460 lung cancer cells; details: Homo sapiens, read-out: Log10 GI50 (converted)
[20] = test system: RXF-393 renal cancer cells; details: Homo sapiens, read-out: Log10 GI50 (converted)
HT29 colon cancer cells = details: Homo sapiens, HT-29, read-out: Log10 GI50 (converted)
[21] = test system: NCI-H522 lung cancer cells; details: read-out: Log10 GI50 (converted)
UO-31 renal cancer cells = details: read-out: Log10 GI50 (converted)
[22] = test system: BT-549 breast cancer cells; details: read-out: Log10 GI50 (converted)
From the text: as §4, §2, §3

[23] = test system: MCF7/ADR-RES breast cancer cells; details: read-out: Log10 GI50 (converted)
From the text: as §4, §2, §3

[24] = test system: MDA-MB-435 breast cancer cells; details: read-out: Log10 GI50 (converted)
From the text: as §4, §2, §3

[25] = test system: HS 578T breast cancer cells; details: read-out: Log10 GI50 (converted)
From the text: as §4, §2, §3

ACHN renal cancer cells = details: read-out: Log10 GI50 (converted)
SN12C renal cancer cells = details: read-out: Log10 GI50 (converted)
[26] = test system: NCI-H226 lung cancer cells; details: Homo sapiens, read-out: Log10 GI50 (converted)

| SMILES | GI50 (MALME-3M melanoma cells) | GI50 [3] | GI50 [4] | GI50 (TK-10 renal cancer cells) | GI50 (U251 CNS cancer cells) | GI50 [6] | GI50 [7] | GI50 (M-14 melanoma cells) | GI50 [9] | GI50 (SK-MEL-28 melanoma cells) | GI50 [11] | GI50 [12] | GI50 (KM12 colon cancer cells) | GI50 (SK-MEL-5 melanoma cells) | GI50 (MCF7 breast cancer cells) | GI50 [14] | GI50 [15] | GI50 (786-0 renal cancer cells) | GI50 [16] | GI50 (SF-295 CNS cancer cells) | other results |
| --- | --- | --- | --- | --- | --- | --- | --- | --- | --- | --- | --- | --- | --- | --- | --- | --- | --- | --- | --- | --- | --- |
| OCc1ccc(-c2ccc(-c3ccsc3)s2)s1 [drawing 37] | 38.9 µM | 58.9 µM | 24 µM | 0.204 µM | 10.7 µM | 47.9 µM | 57.5 µM | 42.7 µM | 0.219 µM | 36.3 µM | 66.1 µM | 0.501 µM | 83.2 µM | 41.7 µM | 0.257 µM | 51.3 µM | 0.977 µM | 57.5 µM | 0.339 µM | 35.5 µM | GI50 [1]: 0.417 µM; GI50 [2]: 0.158 µM; GI50 (UACC-257 melanoma cells): 0.191 µM; GI50 [5]: 0.0229 µM; GI50 (A-498 renal cancer cells): 0.115 µM; GI50 (SNB-75 CNS cancer cells): 30.9 µM; GI50 ([8]; COLO 205, read-out: Log10 GI50 (converted)): 0.912 µM; GI50 (HOP-92 lung cancer cells): 38.9 µM; GI50 [10]: 28.2 µM; GI50 [13]: 25.1 µM; GI50 [17]: 0.363 µM; GI50 [18]: 16.2 µM; GI50 (SNB-19 CNS cancer cells): 33.1 µM; GI50 (HOP-62 lung cancer cells): 20.4 µM; GI50 (SF-268 CNS cancer cells): 53.7 µM; GI50 [19]: 25.1 µM; GI50 [20]: 20.4 µM; GI50 (HT29 colon cancer cells): 13.8 µM |
| OCc1cc(-c2ccc(-c3cccs3)s2)sc1CO | 29.5 µM | 28.2 µM | 38.9 µM | 20.9 µM | 69.2 µM | 40.7 µM | 50.1 µM | 51.3 µM | 0.229 µM | 39.8 µM | 55 µM | 5.37 µM | 16.6 µM | > 10 µM | 0.178 µM | 49 µM | 0.316 µM | 52.5 µM | 0.427 µM | 33.9 µM | GI50 [21]: 33.9 µM; GI50 (UO-31 renal cancer cells): 64.6 µM; GI50 ([8]; COLO-205, colon cancer, read-out: Log10 GI50 (converted)): 5.89 µM; GI50 [22]: 83.2 µM; GI50 [23]: 57.5 µM; GI50 [24]: 15.1 µM; GI50 [25]: 52.5 µM; GI50 (ACHN renal cancer cells): 56.2 µM; GI50 (SN12C renal cancer cells): 46.8 µM; GI50 (HOP-62 lung cancer cells): 20 µM; GI50 [19]: 5.62 µM; GI50 [20]: 8.71 µM; GI50 [26]: 0.257 µM; GI50 (HT29 colon cancer cells): 18.6 µM |
